Assays:
Assay in all cases: relative viability (nuclei count vs DMSO), 5 days (fraction); higher = more cells survive
[1] = tested on: NCI-H520
Summary of the method: (§1)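 Cells from lung cancer lines were seeded into 1536-well plates and, one day later, dosed by pin tool. Treatments were either a single drug or a fixed dose of an anchor drug with five library-drug doses (not always all listed) in √10 steps. After 5 days, nuclei were stained in a one-step fixation (final 0.05% Triton X-100, 1% formaldehyde, 1 ug/ml Hoechst) and counted on 4× images, and relative viability is the treated-to-vehicle nuclei ratio, as the median of duplicate plates.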

[2] = tested on: NCI-H460
Summary of the method: as §1

[3] = tested on: PC-3 [JPC-3]
Summary of the method: as §1

[4] = tested on: NCI-H1915
Summary of the method: as §1

[5] = tested on: NCI-H661
Summary of the method: as §1

[6] = tested on: BEN
Summary of the method: as §1

[7] = tested on: CAL-12T
Summary of the method: as §1

[8] = tested on: NCI-H727
Summary of the method: as §1

[9] = tested on: NCI-H650
Summary of the method: as §1

[10] = tested on: NCI-H2023
Summary of the method: as §1

[11] = tested on: LCLC-97TM1
Summary of the method: as §1

[12] = tested on: NCI-H1650
Summary of the method: as §1

[13] = tested on: NCI-H1944
Summary of the method: as §1

[14] = tested on: NCI-H1651
Summary of the method: as §1

[15] = tested on: LC-2-ad
Summary of the method: as §1

[16] = tested on: NCI-H596
Summary of the method: as §1

[17] = tested on: H3255
Summary of the method: as §1

[18] = tested on: NCI-H2087
Summary of the method: as §1

[19] = tested on: ABC-1
Summary of the method: as §1

[20] = tested on: A-427
Summary of the method: as §1

[21] = tested on: NCI-H441
Summary of the method: as §1

[22] = tested on: 201T
Summary of the method: as §1

Cc1sc2c(c1C)C(c1ccc(Cl)cc1)=N[C@@H](CC(=O)OC(C)(C)C)c1nnc(C)n1-2 [JQ1] + COc1cc2c(Oc3ccc(NC(=O)C4(C(=O)Nc5ccc(F)cc5)CC4)cc3F)ccnc2cc1OCCCN1CCOCC1 [Foretinib] (partner 0.25 µM)
relative viability ([1]; first compound 0.04 µM): 0.732
relative viability ([1]; first compound 0.1265 µM): 0.793
relative viability ([1]; first compound 0.4 µM): 0.81
relative viability ([1]; first compound 1.265 µM): 0.35
relative viability ([1]; first compound 4 µM): 0.277
relative viability ([2]; first compound 0.04 µM): 0.901
relative viability ([2]; first compound 0.1265 µM): 0.932
relative viability ([2]; first compound 0.4 µM): 0.628
relative viability ([2]; first compound 1.265 µM): 0.12
relative viability ([2]; first compound 4 µM): 0.112
relative viability ([3]; first compound 0.04 µM): 1.06
relative viability ([3]; first compound 0.1265 µM): 1.05
relative viability ([3]; first compound 0.4 µM): 0.75
relative viability ([3]; first compound 1.265 µM): 0.74
relative viability ([3]; first compound 4 µM): 0.48
relative viability ([4]; first compound 0.04 µM): 1.09
relative viability ([4]; first compound 0.1265 µM): 1.03
relative viability ([4]; first compound 0.4 µM): 0.732
relative viability ([4]; first compound 1.265 µM): 0.653
relative viability ([4]; first compound 4 µM): 0.449
relative viability ([5]; first compound 0.04 µM): 1.04
relative viability ([5]; first compound 0.1265 µM): 0.945
relative viability ([5]; first compound 0.4 µM): 1.03
relative viability ([5]; first compound 1.265 µM): 0.7
relative viability ([5]; first compound 4 µM): 0.668
relative viability ([6]; first compound 0.04 µM): 0.482
relative viability ([6]; first compound 0.1265 µM): 0.529
relative viability ([6]; first compound 0.4 µM): 0.495
relative viability ([6]; first compound 1.265 µM): 0.327
relative viability ([6]; first compound 4 µM): 0.262
relative viability ([7]; first compound 0.04 µM): 1.16
relative viability ([7]; first compound 0.1265 µM): 0.747
relative viability ([7]; first compound 0.4 µM): 0.858
relative viability ([7]; first compound 1.265 µM): 0.351
relative viability ([7]; first compound 4 µM): 0.307
relative viability ([8]; first compound 0.04 µM): 0.841
relative viability ([8]; first compound 0.1265 µM): 0.864
relative viability ([8]; first compound 0.4 µM): 0.537
relative viability ([8]; first compound 1.265 µM): 0.336
relative viability ([8]; first compound 4 µM): 0.438
relative viability ([9]; first compound 0.04 µM): 0.996
relative viability ([9]; first compound 0.1265 µM): 0.717
relative viability ([9]; first compound 0.4 µM): 0.687
relative viability ([9]; first compound 1.265 µM): 0.385
relative viability ([9]; first compound 4 µM): 0.294
relative viability ([10]; first compound 0.04 µM): 0.779
relative viability ([10]; first compound 0.1265 µM): 0.816
relative viability ([10]; first compound 0.4 µM): 0.597
relative viability ([10]; first compound 1.265 µM): 0.252
relative viability ([10]; first compound 4 µM): 0.199
relative viability ([11]; first compound 0.04 µM): 0.909
relative viability ([11]; first compound 0.1265 µM): 0.949
relative viability ([11]; first compound 0.4 µM): 0.823
relative viability ([11]; first compound 1.265 µM): 0.617
relative viability ([11]; first compound 4 µM): 0.4
relative viability ([12]; first compound 0.04 µM): 0.894
relative viability ([12]; first compound 0.1265 µM): 0.656
relative viability ([12]; first compound 0.4 µM): 0.568
relative viability ([12]; first compound 1.265 µM): 0.26
relative viability ([12]; first compound 4 µM): 0.161
relative viability ([13]; first compound 0.04 µM): 0.797
relative viability ([13]; first compound 0.1265 µM): 0.792
relative viability ([13]; first compound 0.4 µM): 0.513
relative viability ([13]; first compound 1.265 µM): 0.441
relative viability ([13]; first compound 4 µM): 0.425
relative viability ([14]; first compound 0.04 µM): 0.904
relative viability ([14]; first compound 0.1265 µM): 0.787
relative viability ([14]; first compound 0.4 µM): 0.625
relative viability ([14]; first compound 1.265 µM): 0.352
relative viability ([14]; first compound 4 µM): 0.365
relative viability ([15]; first compound 0.04 µM): 0.809
relative viability ([15]; first compound 0.1265 µM): 0.625
relative viability ([15]; first compound 0.4 µM): 0.538
relative viability ([15]; first compound 1.265 µM): 0.359
relative viability ([15]; first compound 4 µM): 0.266
relative viability ([16]; first compound 0.04 µM): 0.951
relative viability ([16]; first compound 0.1265 µM): 0.61
relative viability ([16]; first compound 0.4 µM): 0.466
relative viability ([16]; first compound 1.265 µM): 0.322
relative viability ([16]; first compound 4 µM): 0.225
relative viability ([17]; first compound 0.04 µM): 0.78
relative viability ([17]; first compound 0.1265 µM): 0.884
relative viability ([17]; first compound 0.4 µM): 0.987
relative viability ([17]; first compound 1.265 µM): 0.793
relative viability ([17]; first compound 4 µM): 0.442
relative viability ([18]; first compound 0.04 µM): 1.06
relative viability ([18]; first compound 0.1265 µM): 0.997
relative viability ([18]; first compound 0.4 µM): 0.766
relative viability ([18]; first compound 1.265 µM): 0.518
relative viability ([18]; first compound 4 µM): 0.479
relative viability ([19]; first compound 0.04 µM): 0.916
relative viability ([19]; first compound 0.1265 µM): 0.859
relative viability ([19]; first compound 0.4 µM): 0.89
relative viability ([19]; first compound 1.265 µM): 0.395
relative viability ([19]; first compound 4 µM): 0.399
relative viability ([20]; first compound 0.04 µM): 1.01
relative viability ([20]; first compound 0.1265 µM): 0.988
relative viability ([20]; first compound 0.4 µM): 0.913
relative viability ([20]; first compound 1.265 µM): 0.908
relative viability ([20]; first compound 4 µM): 0.636
relative viability ([21]; first compound 0.04 µM): 1.08
relative viability ([21]; first compound 0.1265 µM): 0.981
relative viability ([21]; first compound 0.4 µM): 0.842
relative viability ([21]; first compound 1.265 µM): 0.832
relative viability ([21]; first compound 4 µM): 0.57
relative viability ([22]; first compound 0.04 µM): 1.02
relative viability ([22]; first compound 0.1265 µM): 0.704
relative viability ([22]; first compound 0.4 µM): 0.514
relative viability ([22]; first compound 1.265 µM): 0.343
relative viability ([22]; first compound 4 µM): 0.215

Reference: the supplement of paper PMC10307832
